# Assay results published in patent publication US20050244335A1, “Methods and compositions related to increasing antitumor activity of chemotherapeutic agents” (priority 2004, published 2005).
# Test: Pharmacokinetics of carboplatin in nude mice bearing A549 xenografts
# Type: in vivo
# Conditions: for AUC / CL / Cmax / T1/2 / Vss: nude mice bearing A549 xenografts, carboplatin 60 mg/kg iv
# Procedure: Pharmacokinetics and Tissue Distribution of Carboplatin. Pharmacokinetic studies were carried out using a protocol similar to that previously described (26) using metabolism cages. Female nude mice bearing human colon cancer LS174T xenografts or human lung cancer A549 xenografts were used (3 animals for each time point). Animals were pre-treated with DEX (s.c., 0.1 mg/day/mouse for 5 days) or saline (as controls) and, at 1 hr after the fifth dose of DEX, were given a single intravenously (i.v.) bolus administration of carboplatin (60 mg/kg) via a tail vein. At various times (5, 15, and 30 min, 1, 2, 4, 8, and 24 hr after carboplatin dosing), blood samples were collected in heparinized tubes and tissue samples removed. Plasma was separated by centrifugation at 20,000 g for 5 min. Tissues including liver, kidneys, spleen, and tumor were taken at various times and immediately blotted on Whatman No. 1 filter paper, trimmed of extraneous fat or connective tissue, weighed, and homogenized in 0.9% NaCl physiological saline (5 mL per gram of wet weight). The resultant homogenates were stored at −70° C. until further analysis. Bone marrow cells were harvested by flushing the femurs with sterile physiological saline as reported previously (30). Briefly, after removing the distal and proximal ends of femur, each end of the bone was punctured with a 20-gauge needle fitted with a 5 mL syringe containing 1 mL of sterile physiological saline (pre-weighed). The bone was then held with a forceps over a test tube and the needle was inserted into the hole in the proximal end. The 1 mL saline was flushed through the bone into the tube by applying gentle, steady pressure to the plunger. The syringe was then filled with 5 ml of air that was gently forced through the bone to remove the remaining saline and bone marrow in the shaft. The resultant bone marrow cell suspension was weighed and lysed by sonicating 5 times for periods of 10 sec. Following centrifugation at 20,000 g for 30 min, the supernatant was removed and stored at −70° C. until further analysis.
# HPLC Analysis of Carboplatin in Plasma and Tissues. Carboplatin in biological samples was analyzed by an analytical procedure involving micro-filtration and reversed-phase HPLC (31). 200 μL of plasma or tissue homogenates or bone marrow suspension was added to the reservoir of a Centrifree™ micropartition system. The latter was capped and centrifuged at 2,000 g for 5 min. All filtrates were transferred into a new micro centrifuge tube and 6 μL of the filtrates was injected onto the HPLC column. The HPLC system consisted of a Hewlett Packard 1050 ChemStation with a UV detector (Agilent 1050 series). Determination of Carboplatin was achieved using a LiChrosorb™ diol (10 μm, 250×4.6 mm) analytical column with a LiChroCART 100 RP-18 guard column. The mobile phase for plasma was composed of 98:2 acetonitrile:H2O (vol/vol) and 89:11 acetonitrile: 0.015% H3PO4 (vol/vol) for urine and tissue samples. The flow rates were 2 mL/min (for plasma) and 1.1 mL/min (for urine and tissue samples). The column elute was monitored by UV at 229 nm. Quantitation of plasma or tissue carboplatin was carried out by using an external standard curve (0-4,000.0 μg/mL) that was freshly prepared on a daily basis. Linear regression and correlation analysis were carried out to establish the standard peak-area/concentration curves for carboplatin.
# Data and Statistical Analysis.
structure (smiles),measurement,setting,value
N.N.O=C([O-])C1(C(=O)[O-])CCC1.[Pt+2] [carboplatin],increase in tumor AUC by DEX pretreatment,A549 nude mice,50%
same,AUC,"bone marrow, DEX (+)",517.21 µg·h/mL
same,CL,"bone marrow, DEX (+)",0.01 mL/g/h
same,Cmax,"bone marrow, DEX (+)",27.29 µg/mL
same,T1/2,"bone marrow, DEX (+)",30 min
same,Vss,"bone marrow, DEX (+)",2.72 mL/g
same,AUC,"bone marrow, DEX (−)",641.04 µg·h/mL
same,CL,"bone marrow, DEX (−)",0.01 mL/g/h
same,Cmax,"bone marrow, DEX (−)",32.58 µg/mL
same,T1/2,"bone marrow, DEX (−)",30 min
same,Vss,"bone marrow, DEX (−)",1.97 mL/g
same,AUC,"liver, DEX (+)",21.68 µg·h/mL
same,CL,"liver, DEX (+)",4.79 mL/g/h
same,Cmax,"liver, DEX (+)",5.91 µg/mL
same,T1/2,"liver, DEX (+)",60 min
same,Vss,"liver, DEX (+)",9.05 mL/g
same,AUC,"liver, DEX (−)",26.32 µg·h/mL
same,CL,"liver, DEX (−)",3.99 mL/g/h
same,Cmax,"liver, DEX (−)",7.00 µg/mL
same,T1/2,"liver, DEX (−)",60 min
same,Vss,"liver, DEX (−)",8.31 mL/g
same,AUC,"plasma, DEX (+)",66.08 µg·h/mL
same,CL,"plasma, DEX (+)",0.91 mL/g/h
same,Cmax,"plasma, DEX (+)",411.89 µg/mL
same,T1/2,"plasma, DEX (+)",6.6 min
same,Vss,"plasma, DEX (+)",0.15 mL/g
same,AUC,"plasma, DEX (−)",55.22 µg·h/mL
same,CL,"plasma, DEX (−)",1.09 mL/g/h
same,Cmax,"plasma, DEX (−)",357.34 µg/mL
same,T1/2,"plasma, DEX (−)",6.6 min
same,Vss,"plasma, DEX (−)",0.17 mL/g
same,AUC,"spleen, DEX (+)",75.59 µg·h/mL
same,CL,"spleen, DEX (+)",0.79 mL/g/h
same,Cmax,"spleen, DEX (+)",482.14 µg/mL
same,T1/2,"spleen, DEX (+)",6.6 min
same,Vss,"spleen, DEX (+)",0.12 mL/g
same,AUC,"spleen, DEX (−)",359.44 µg·h/mL
same,CL,"spleen, DEX (−)",0.17 mL/g/h
same,Cmax,"spleen, DEX (−)",341.99 µg/mL
same,T1/2,"spleen, DEX (−)",43.8 min
same,Vss,"spleen, DEX (−)",0.18 mL/g
same,AUC,"tumor, DEX (+)",15.48 µg·h/mL
same,CL,"tumor, DEX (+)",3.88 mL/g/h
same,Cmax,"tumor, DEX (+)",64.09 µg/mL
same,T1/2,"tumor, DEX (+)",10.2 min
same,Vss,"tumor, DEX (+)",0.94 mL/g
same,AUC,"tumor, DEX (−)",10.16 µg·h/mL
same,CL,"tumor, DEX (−)",5.90 mL/g/h
same,Cmax,"tumor, DEX (−)",32.15 µg/mL
same,T1/2,"tumor, DEX (−)",13.2 min
same,Vss,"tumor, DEX (−)",1.87 mL/g
